# In patent US20120272401A1 (priority 2009, published 2012):
# Key:
# [1] = test system: CC1=CC(=O)CC(C)(C)C1(O)/C=C/C(C)=C\C(=O)O; assay: cells, lysate or membranes named; settings: other: membrane vesicles expressing AtABCG25, ATP-dependent uptake measured for 15 seconds at indicated ABA concentrations; 27.0 °C
# AtABCG25 protein = molecular target: T1, AtABCG25 protein (Arabidopsis thaliana, UniProt Q84TH5, L179I); type: biochemical; settings: for Promotion of ABA uptake by nucleotide (energy dependence): 4 mM of the indicated nucleotide; for Inhibition of ATP-dependent ABA uptake by nucleotide: 4 mM of the indicated nucleotide in addition to ATP
# T1 construct: Full-length cDNA of the AtABCG25 (Atlg71960) gene was obtained from the RIKEN BioResource Center; made in house; host or cells: Sf9 insect cells (Spodoptera frugiperda), BaculoGold baculovirus system; membrane vesicles
# Method: Such activity is measured using the vesicle transport assay method described in the Examples below. […] The candidate of ABA transporter protein is expressed in such cell membrane. The membrane comprises inside-out membrane vesicles in which the inside and the outside are inverted.
# A BaculoGold™ baculovirus expression vector system (BD PharMingen) was used to prepare the recombinant baculovirus. Sf9 insect cells (Spodoptera frugiperda) were infected with the virus and cultured in SF900-SFM medium (Invitrogen) at 27° C. for 72 hours in a shaking incubator. Cells were collected by centrifugation at 1,100×g for 10 minutes and then disrupted by nitrogen cavitation in 150 mM NaCl. 3 mM CaCl2, 2 mM MgCl2, 0.1 mM EGTA, and 10 mM Tris-HCl (pH 7.4). Undisrupted cells, nuclear debris, and mitochondria were pelleted by centrifugation at 2,600×g for 10 minutes. The supernatant was centrifuged at 100,000×g for 30 minutes, and the pellet was resuspended in 70 mM KCl, 7.5 mM MgCl2, and 50 mM MOPS-Tris (pH 7.0). Membrane vesicles were stored by freezing in a deep freezer until use. Concentration of the protein was measured using the BCA protein assay kit (Pierce) with bovine serum albumin as a control. To confirm the production of the AtABCG25 proteins in the Sf9 cells by Western blot analysis, an anti-AtABCG25 antibody was obtained by immunizing a rabbit with a synthetic peptide (Operon Biotechnologies). This synthetic peptide consisted of 3 types of 12 to 14 amino acid residues from the Arabidopsis AtABCG25 protein, designed based on positions 69 to 82 ([…]), positions 132 to 143 ([…]), and positions 328 to 340 ([…]). Membrane proteins were solubilized using 4% SDS and subjected to 10% SDS-PAGE. Proteins were transferred to a polyvinylidene difluoride membrane and probed using a rabbit anti-AtABCG25 antibody and horseradish-peroxidase-conjugated donkey anti-rabbit IgG. Specific immunoreactive proteins were detected by exposure to an autoradiography film using a chemiluminescence detection system (ECL-plus, Amersham Biosciences).
# An experiment of membrane transport was carried out using the rapid filtration technique (Otsuka, M. et al., 2005, Proc. Natl. Acad. Sci., U.S.A., 102: 17923-17928). […] The transport medium was passed through a 0.45-μm nitrocellulose filter (Millipore), and the filter was washed with 6 ml of ice-cooled stop buffer (70 mM KCl, 7.5 mM MgCl2, 50 mM MOPS-Tris, pH 7.0). The radioactivity retained on the filter was determined using a liquid scintillation counter (Tri-Carb2800TRs; PerkinElmer). Membrane vesicles from Sf9 cells containing only the vector were used as the controls.
# [2] = test system: AtABCG25 promoter (pAtABCG25::GUS reporter); assay: GUS staining of pAtABCG25::GUS transgenic plants after ABA treatment; type: in vivo, Arabidopsis; settings: 10 μM ABA
# Method: RNA was extracted from Arabidopsis plants for RT-PCR using the RNeasy Plant Mini Kit (Qiagen). RT-PCR was carried out using AtABCG25_RT-PCR—5′ (5′-[…]-3′ (SEQ ID NO: 8)) and AtABCG25_RT-PCR—3′ (5′-[…]-3′ (SEQ ID NO: 9)) primers with the PrimeScript One Step RT-PCR kit (Takara Bio). The Actin2 transcript as a control was amplified using Actin2RT-F (5′-[…]-3′ (SEQ ID NO: 10)) and Actin2RT-R (5″-[…]-3′ (SEQ ID NO: 11)) primers. GUS staining was carried out according to the standard protocol (Sundaresan, V. et al., 1995, Genes Dev9: 1797-1810). The plants stained with GUS were observed under a SZ61 stereoscopic microscope (Olympus), and digital images were obtained using the DS-L1 CCD digital camera (Nikon). Finer images were photographed using a BX60 upright microscope (Olympus) and a VB-7010 CCD camera (Keyence). For transgenic lines to be examined for GUS expression from the AtABCG25 promoter a 2-kb AtABCG25 promoter region was prepared by amplifying the region using AtABCG25pro_Forward (5′-[…]-3′ (SEQ ID NO: 12)) and AtABCG25pro_Reverse (5′-[…]-3′ (SEQ ID NO: 13)) primers with KOD-plus polymerase (Toyobo), cloning the amplified product into the pENTR/D/TOPO vector (Invitrogen), and integrating the resultant into the GUS-fusion vector pBGGUS (Kubo, M. et al., 2005, Genes Dev 19: 1855-1860).
# T1 sequence (Q84TH5 whole entry L179I): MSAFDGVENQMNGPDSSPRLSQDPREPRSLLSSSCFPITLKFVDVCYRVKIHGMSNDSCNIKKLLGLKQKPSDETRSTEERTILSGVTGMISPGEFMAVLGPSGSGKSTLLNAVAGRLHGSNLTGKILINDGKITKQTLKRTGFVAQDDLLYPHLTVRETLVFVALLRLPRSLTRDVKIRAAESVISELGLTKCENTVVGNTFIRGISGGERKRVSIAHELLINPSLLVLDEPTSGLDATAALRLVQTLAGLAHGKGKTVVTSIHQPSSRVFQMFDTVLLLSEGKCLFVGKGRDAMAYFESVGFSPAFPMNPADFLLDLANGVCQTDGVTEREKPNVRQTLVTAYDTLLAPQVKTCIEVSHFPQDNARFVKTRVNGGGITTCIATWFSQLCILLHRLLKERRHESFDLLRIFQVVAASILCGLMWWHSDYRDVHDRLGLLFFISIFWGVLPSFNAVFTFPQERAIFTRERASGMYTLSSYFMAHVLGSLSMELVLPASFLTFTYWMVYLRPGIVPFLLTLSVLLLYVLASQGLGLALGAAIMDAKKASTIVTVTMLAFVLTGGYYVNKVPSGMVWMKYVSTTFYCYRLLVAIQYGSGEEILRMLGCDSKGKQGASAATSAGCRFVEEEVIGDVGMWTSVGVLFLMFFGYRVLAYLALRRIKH
compound,measurement,setting,value
AtABCG25 protein (Arabidopsis thaliana; L179I),Km,[1],0.23 µM
same,Vmax,[1],6.2 μmol/min/mg protein
Nc1ncnc2c1ncn2[C@@H]1O[C@H](COP(=O)(O)OP(=O)(O)O)[C@@H](O)[C@H]1O [ADP],Promotion of ABA uptake by nucleotide (energy dependence),AtABCG25 protein,neither ADP nor AMP promoted
same,Inhibition of ATP-dependent ABA uptake by nucleotide,AtABCG25 protein,inhibited
"Nc1ncnc2c1ncn2[C@@H]1O[C@H](COP(=O)(O)OP(=O)(O)OP(=O)(O)O)[C@@H](O)[C@H]1O [ATP, adenosine triphosphate]",Promotion of ABA uptake by nucleotide (energy dependence),AtABCG25 protein,significantly promoted
"CC1=CC(=O)CC(C)(C)C1(O)/C=C/C(C)=C\C(=O)O (single isomer, unassigned; (-)) [(−)ABA]",Cis-inhibition of ATP-dependent ABA uptake (substrate specificity),"AtABCG25 protein; in the presence of ATP and compound, (+)ABA at a 10-fold concentration",not influenced
"CC1=CC(=O)CC(C)(C)C1(O)/C=C/C(C)=C\C(=O)O (racemic) [ABA, abscisic acid]","ABA uptake in the presence of ATP, full activity (100%)","AtABCG25 protein; at 15 seconds, in the presence of ATP, no competing compound",8.3 μmol/mg protein
same,Expression level of the GUS reporter after ABA treatment,[2],increased
Nc1ncnc2c1ncn2[C@@H]1O[C@H](COP(=O)(O)O)[C@@H](O)[C@H]1O [AMP],Promotion of ABA uptake by nucleotide (energy dependence),AtABCG25 protein,neither ADP nor AMP promoted
same,Inhibition of ATP-dependent ABA uptake by nucleotide,AtABCG25 protein,did not exhibit any inhibitory effect
[O]=[V]([O-])([O-])[O-] [Vanadate],Inhibition of ATP-dependent ABA uptake by vanadate,AtABCG25 protein; 1 mM vanadate in addition to ATP,inhibited
